Where “and” joins values, the source holds several entries; their conditions need not be identical. Equal entries are not always repeated.
Columns and labels:
[1] = system: postmenopausal women with SUI; assay: Proof of concept clinical study: stress leaks per day by 3 day voiding diary; format: in vivo, human
Method: This was initially a single site, proof of concept feasibility study to describe the effect of the S-isomer of the compound of Formula IX (Compound IX) 3 mg in postmenopausal female subjects with SUI. However, data presented herein were from subjects seen at 3 separate sites.
Described is the effect of 12 weeks of treatment of Compound IX on the number of stress urinary incontinence episodes/day as assessed by the 3 day voiding diary. See leaks/day data in Tables 2 (individual subject data from all 3 sites), Tables 4-6 (mean stress leaks for sites 1, 2, and 3, respectively), and FIG. 10 (mean stress leaks/day across all sites). Further, see Table 3 for the durability of this response in subjects assessed at 16, 24, 32 and 40 weeks (and their pad weights).
Subjects were instructed to take one 3 mg softgel capsule per day by mouth, without regard to food intake.
This is a proof of concept feasibility study, so no power calculation was needed. Therefore, up to 35 subjects meeting inclusion/exclusion criteria would be recruited until the enrolled subjects have completed treatment. Further, durability was assessed at 40 weeks. Descriptive statistics were performed to explore changes in primary and secondary outcomes measures between baseline and weeks 12 (end of treatment) or 40 (durability). The primary efficacy measure was a reduction in the number of stress incontinence episodes/day. […] Safety will be determined by the number and type of adverse events reported during treatment, but is reported here from historical data from other clinical trials. Various imputation methods may be explored.
Change in frequency of daily stress urinary incontinence episodes from Baseline to Week 12 and durability at 40 weeks (28 weeks after Compound IX treatment is discontinued).
The data were collected from first 18 patients at 12 weeks and are derived from number of stress leaks reported by subjects in a 3 day voiding diary. […] Table 3 provides durability data of Compound IX for 18 patients and depicts that, for the first 9 subjects, this response was durable out to 40 weeks, i.e., 28 weeks (7 months) after treatment with Compound IX was discontinued. Data collection and analysis is ongoing.

human subjects = assay: Safety profile from other clinical trials (treatment related adverse events); format: in vivo
Method: (§1) Described is the safety profile of Compound IX 3 mg PO daily in subjects with SUI. See Table 8 which is historical data from other clinical trials establishing the safety profile of Compound IX in human subjects. See also the lack of increase in endometrial thickness in Example 19.
(§2) For the PGI-S measure, 12 patients reported symptoms as “moderate” or “severe” at baseline; whereas only 3 patients reported “moderate” symptoms and no patients reported “severe” at 12 weeks (FIG. 12A).
Mean stress leaks decreased by 81 percent from baseline over 12 weeks (5.17 leaks/day at baseline to 1.0 leaks/day at week 12), and the reductions in daily stress leaks following completion of treatment have been sustained as subjects are being followed for up to 7 months post-treatment to assess the durability of treatment effect (0.63 leaks/day at 40 weeks (7 months post-treatment) in the first nine subjects). No subject has relapsed to their baseline levels. Urge urinary incontinence was also observed in 11 subjects, and Compound IX produced a 68% reduction from baseline over 12 weeks in these patients, which was also observed to be durable for at least 7 months (N=7). […] All were consistent with AR pharmacology and previous clinical trials with Compound IX. Based on the results from this Phase 2 proof-of-concept study with Compound IX, a randomized, placebo-controlled Phase 2 clinical trial to evaluate the change in frequency of daily stress urinary incontinence episodes following 12 weeks of treatment was initiated. The trial will evaluate the safety and efficacy of Compound IX (1 mg and 3 mg) compared with placebo in postmenopausal women with SUI.

[2] = system: postmenopausal women with SUI; assay: Proof of concept clinical study: safety; format: in vivo, human; conditions: 3 mg/day p.o., 12 weeks
Method: as §1, §2

[3] = system: postmenopausal women with SUI and UUI; assay: Proof of concept clinical study: urge incontinence leaks per day; format: in vivo, human
Description: Unexpectedly, Compound IX reduced the median and mean number of urge leaks by ˜60-70% at the week 12 endpoint (Table 12). FIG. 14 provides mean urge leaks/day data over the course of the study in these 11 patients. At baseline the mean was 1.41 urge leaks per day which was reduced to 0.45 urge leaks per day at weak 12, representing a 68% decrease from baseline. Further, the effect on urge incontinence is durable for at least 7 months (N=7) with 0.62 urge leaks per day at 40 weeks (7 months after the last dose of Compound IX). It was unexpected to see any effect of Compound IX on urge incontinence much less such a dramatic and durable effect.
To summarize: while all of the women in the trial had predominant SUI, some also experienced urge urinary incontinence (UUI).

C[C@](O)(COc1ccc(C#N)cc1)C(=O)Nc1ccc(C#N)c(C(F)(F)F)c1 [Compound IX, (S)—N-(4-Cyano-3-(trifluoromethyl)phenyl)-3-(4-cyanophenoxy)-2-hydroxy-2-methylpropanamide]
mean stress leaks/day at 40 weeks ([1]; N=9, 7 months after discontinuation): 0.63 leaks/day
Stress Leaks % Reduction ([1]; Site 1 (n = 10), week 12): 86%
Stress Leaks % Reduction ([1]; Site 2 (n = 5), week 12): 75%
Stress Leaks % Reduction ([1]; Site 3 (n = 2), week 12): 78%
reduction of mean stress leaks/day from baseline to week 12 ([1]; all sites, 18 patients): 81%
mean stress leaks/day at week 12 ([1]; all sites, 18 patients, baseline 5.17): 1.0 leaks/day and 1.00 leaks/day
Leaks/Day (Week 12), stress leaks ([1]; individual patients, 3 mg/day p.o., week 12): 2.33 leaks/day and 0 leaks/day (3×) and 1 leaks/day (2×) and 1.33 leaks/day (2×) and 0.33 leaks/day (3×) and 1.66 leaks/day and 1.30 leaks/day and .67 leaks/day and 2.3 leaks/day and .33 leaks/day and 3 leaks/day and 0.67 leaks/day
Durability of response: % Reduction in leaks/day Week 16 ([1]; individual patients, 4 weeks post-treatment): 77% and 100% (5×) and 60% and 50% and 92% and 89% and 79% and 78% and 64% and 65%
Durability of response: % Reduction in leaks/day Week 24 ([1]; individual patients, 12 weeks post-treatment): 69% and 100% (6×) and 70% and 42% and 95% and 10% and 57% and 78% and 50% and 60%
Durability of response: % Reduction in leaks/day Week 32 ([1]; individual patients, 20 weeks post-treatment): 54% and 95% and 100% (3×) and 17% and 50% and 36% and 55% and 93%
Durability of response: % Reduction in leaks/day Week 40 ([1]; individual patients, 28 weeks post-treatment): 69% and 100% (5×) and 80% and 42% and 72%
patients who were responders (50% or greater reduction in stress leaks/day) ([1]; week 12, 18 patients): all patients were responders and All 18 patients were responders and All 18 subjects and all 18 subjects and 18 of 18
Abdominal Pain, figure in parentheses (percent of subjects) (human subjects; N = 896): (0.8)
Abdominal Pain, number of subjects (human subjects; N = 896): 7
Alanine Aminotransferase Increased, figure in parentheses (percent of subjects) (human subjects; N = 896): (2.1)
Alanine Aminotransferase Increased, number of subjects (human subjects; N = 896): 19
Any Treatment Related Adverse Event, figure in parentheses (percent of subjects) (human subjects; N = 896): (24.4)
Any Treatment Related Adverse Event, number of subjects (human subjects; N = 896): 219
Back pain, figure in parentheses (percent of subjects) (human subjects; N = 896): (1.5)
Back pain, number of subjects (human subjects; N = 896): 13
Constipation, figure in parentheses (percent of subjects) (human subjects; N = 896): (1.3)
Constipation, number of subjects (human subjects; N = 896): 12
Diarrhea, figure in parentheses (percent of subjects) (human subjects; N = 896): (2.1)
Diarrhea, number of subjects (human subjects; N = 896): 19
Dizziness Postural, figure in parentheses (percent of subjects) (human subjects; N = 896): (0.6)
Dizziness Postural, number of subjects (human subjects; N = 896): 5
Dizziness, figure in parentheses (percent of subjects) (human subjects; N = 896): (2.0)
Dizziness, number of subjects (human subjects; N = 896): 18
Dyspnea, figure in parentheses (percent of subjects) (human subjects; N = 896): (0.9)
Dyspnea, number of subjects (human subjects; N = 896): 8
Fatigue, figure in parentheses (percent of subjects) (human subjects; N = 896): (0.9)
Fatigue, number of subjects (human subjects; N = 896): 8
Headache, figure in parentheses (percent of subjects) (human subjects; N = 896): (5.7)
Headache, number of subjects (human subjects; N = 896): 51
Hot Flush, figure in parentheses (percent of subjects) (human subjects; N = 896): (0.7)
Hot Flush, number of subjects (human subjects; N = 896): 6
Hyperhidrosis, figure in parentheses (percent of subjects) (human subjects; N = 896): (1.0)
Hyperhidrosis, number of subjects (human subjects; N = 896): 9
Insomnia, figure in parentheses (percent of subjects) (human subjects; N = 896): (0.6)
Insomnia, number of subjects (human subjects; N = 896): 5
Muscle Spasms, figure in parentheses (percent of subjects) (human subjects; N = 896): (0.7)
Muscle Spasms, number of subjects (human subjects; N = 896): 6
Myalgia, figure in parentheses (percent of subjects) (human subjects; N = 896): (0.7)
Myalgia, number of subjects (human subjects; N = 896): 6
Nausea, figure in parentheses (percent of subjects) (human subjects; N = 896): (3.0)
Nausea, number of subjects (human subjects; N = 896): 27
Pain in Extremity, figure in parentheses (percent of subjects) (human subjects; N = 896): (1.2)
Pain in Extremity, number of subjects (human subjects; N = 896): 11
Pruritus, figure in parentheses (percent of subjects) (human subjects; N = 896): (1.0)
Pruritus, number of subjects (human subjects; N = 896): 9
Rash, figure in parentheses (percent of subjects) (human subjects; N = 896): (0.6)
Rash, number of subjects (human subjects; N = 896): 5
Somnolence, figure in parentheses (percent of subjects) (human subjects; N = 896): (1.0)
Somnolence, number of subjects (human subjects; N = 896): 9
Vomiting, figure in parentheses (percent of subjects) (human subjects; N = 896): (1.3)
Vomiting, number of subjects (human subjects; N = 896): 12
general safety and tolerability (human subjects; about 1,200 individuals, doses 0.1 mg to 100 mg): generally safe and well tolerated
SHBG [2]: Reductions in SHBG
endometrial stripe thickness [2]: No changes in endometrial stripe thickness
liver enzymes [2]: Mild transient elevations in liver enzymes
serious adverse events [2]: no serious adverse events reported
total cholesterol, LDL, HDL and triglycerides [2]: reductions in total cholesterol, LDL, HDL and triglycerides
Median urge incontinence leaks per day, Week 12 ([3]; 11 patients with >0 baseline leaks, baseline 1.3): 0.3
Mean urge incontinence leaks per day, Week 12 ([3]; 11 patients with >0 baseline leaks, baseline 1.41): 0.45 leaks/day
mean urge leaks per day at 40 weeks ([3]; N=7, 7 months after the last dose): 0.62 urge leaks per day
Number of Urge Incontinence Leaks per Day, Week 12 ([3]; individual patients, 3 mg/day p.o.): 0 (10×) and 0.33 and 1 (2×) and 0.3 and 2.7 and 1.67 and 0.67
women with a reduction in UUI episodes per day of at least 50 percent ([3]; week 12): 8 of 11
women with a reduction in their number of UUI leaks compared to baseline ([3]; week 12): 9 of 11 and 11 of 11
reduction of median and mean number of urge leaks ([3]; week 12 endpoint, 11 patients): 60-70%
